According to patent US9174977B2, “2-azabicyclo[4.1.0]heptane derivatives as orexin receptor antagonists for the treatment of certain disorders” (Rottapharm Biotech S.r.l., priority 2012, dated 2015):

Legend:
human OX2 receptors = target: T1, human OX2 receptors (Homo sapiens, UniProt O43614); experiment: antagonistic activity against human OX2 receptor, calcium fluorimetry (Fluo-4NW) in transfected HEK-293 cells; type: cell-based; conditions: HEK-293 cells transfected with human recombinant OX2, activated with orexin-B 10 nM; pKb = co-logarithm of apparent dissociation constant (modified Cheng Prusoff)
T1 construct: expressed in transfected cells; host or cells: HEK-293 cells
T1 sequence (O43614 1-444): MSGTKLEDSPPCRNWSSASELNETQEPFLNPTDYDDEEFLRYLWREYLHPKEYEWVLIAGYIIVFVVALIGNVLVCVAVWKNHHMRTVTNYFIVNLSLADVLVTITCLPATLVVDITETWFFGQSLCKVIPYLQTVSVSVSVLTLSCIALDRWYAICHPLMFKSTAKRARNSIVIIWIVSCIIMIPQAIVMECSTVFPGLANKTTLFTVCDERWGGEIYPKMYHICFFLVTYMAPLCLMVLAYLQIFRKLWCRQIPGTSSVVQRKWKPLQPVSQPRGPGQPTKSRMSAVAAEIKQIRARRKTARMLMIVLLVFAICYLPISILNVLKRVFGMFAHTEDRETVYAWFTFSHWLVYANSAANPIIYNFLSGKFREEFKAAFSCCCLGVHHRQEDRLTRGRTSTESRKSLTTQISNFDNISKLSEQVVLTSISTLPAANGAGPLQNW
Protocol: (§1) In a typical experiment, the antagonistic activity against human OX1 and OX2 receptors is determined by using CHO e HEK-293 cells transfected with human recombinant OX1 and OX2 receptors respectively, seeded at density of 2 and 3×10^4 cells/well respectively in a 96 fluorimetry well plate. Thus the plate was loaded with the calcium dye (Fluo-4NW/probenecid in HBSS, Hepes 20 mM, pH 7,4; Invitrogen) at 37° C. for 60 min. Afterward the temperature was equilibrated at 22° C. for 15 min and the [Ca2+]i measured directly on the plate by using a fluorescent plate reader (CellLux Perkin Elmer).
(§2) Invention compounds were dissolved in DMSO, diluted in HBSS (DMSO, 0.3% final) and added to the wells. After 5 min CHO cells were activated with orexin-A, 3 nM while HEK-293 cells were activated with orexin-B, 10 nM.
(§3) The compounds, dissolved in DMSO and diluted in the medium (DMSO, 0.3% final), have been analysed in the 1 nM-1 μM concentration range (every concentration in duplicate). The antagonistic activity has been expressed as pKb (co-logarithm of the apparent dissociation constant calculated by using the modified Cheng Prusoff equation).
(§4) The results are expressed as percent of control specific […] response ((measured specific response/control specific agonist response)×100) obtained in the presence of the test compounds.
(§5) The IC50 values (concentration causing a half-maximal inhibition of the control specific agonist response) were determinated by non-linear regression analysis of the concentration curves generated with mean replicate values using hill equation curve fitting. The IC50 values are obtained by the arithmetical mean of at least two experiments.

human OX1 receptors = target: T2, human OX1 receptors (Homo sapiens, UniProt O43613); experiment: antagonistic activity against human OX1 receptor, calcium fluorimetry (Fluo-4NW) in transfected CHO cells; type: cell-based; conditions: CHO cells transfected with human recombinant OX1, activated with orexin-A 3 nM; pKb = co-logarithm of apparent dissociation constant (modified Cheng Prusoff)
T2 construct: expressed in transfected cells; host or cells: CHO cells
T2 sequence (O43613 1-425): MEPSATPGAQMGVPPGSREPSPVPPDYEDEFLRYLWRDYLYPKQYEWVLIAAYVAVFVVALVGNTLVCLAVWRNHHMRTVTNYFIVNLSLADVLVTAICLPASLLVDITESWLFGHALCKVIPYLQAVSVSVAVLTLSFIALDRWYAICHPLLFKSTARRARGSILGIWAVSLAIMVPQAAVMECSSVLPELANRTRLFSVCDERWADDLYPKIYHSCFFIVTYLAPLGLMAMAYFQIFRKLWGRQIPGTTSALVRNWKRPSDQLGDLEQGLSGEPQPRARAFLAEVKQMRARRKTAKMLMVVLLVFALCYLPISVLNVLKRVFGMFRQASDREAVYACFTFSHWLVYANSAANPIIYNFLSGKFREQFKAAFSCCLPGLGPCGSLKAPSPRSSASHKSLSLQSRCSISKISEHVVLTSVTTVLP
Protocol: as §1, §2, §3, §4, §5

| Compound | Kb (human OX2 receptors) [nM] | Kb (human OX1 receptors) [nM] |
| --- | --- | --- |
| Cc1nc(C(=O)N2[C@H](CNc3ccc(Cl)cn3)CC[C@H]3C[C@H]32)c(-c2ccccc2)s1 [Compound 2b, ((1R,3S,6S)-3-(((5-chloropyridin-2-yl)amino)methyl)-2-azabicyclo[4.1.0]heptan-2-yl)(2-methyl-5-phenylthiazol-4-yl)methanone] | 15.8 | 1.26 |
| O=C(c1cc(Cl)ccc1-c1ncccn1)N1[C@H](CNc2ccc(Cl)cn2)CC[C@H]2C[C@H]21 [Compound 1f, (5-chloro-2-(pyrimidin-2-yl)phenyl)((1R,3S,6S)-3-(((5-chloropyridin-2-yl)amino)methyl)-2-azabicyclo[4.1.0]heptan-2-yl)methanone] | 15.8 | 0.794 |
| Cc1ccc(-c2ncccn2)c(C(=O)N2[C@H](COc3ccc(Cl)cn3)CC[C@H]3C[C@H]32)c1 [Compound 3f, ((1R,3S,6S)-3-(((5-chloropyridin-2-yl)oxy)methyl)-2-azabicyclo[4.1.0]heptan-2-yl)(5-methyl-2-(pyrimidin-2-yl)phenyl)methanone] | 50.1 | 1 |
| N#Cc1ccc(-c2ncccn2)c(C(=O)N2[C@H](COc3ccc(Cl)cn3)CC[C@H]3C[C@H]32)c1 [Compound 3a, 3-((1R,3S,6S)-3-(((5-chloropyridin-2-yl)oxy)methyl)-2-azabicyclo[4.1.0]heptane-2-carbonyl)-4-(pyrimidin-2-yl)benzonitrile] | 63.1 | 1.26 |
| Cc1ccc(-c2ncccn2)c(C(=O)N2[C@H](COc3ccc(C(F)(F)F)cn3)CC[C@H]3C[C@H]32)c1 [Compound 3g, (5-methyl-2-(pyrimidin-2-yl)phenyl)((1R,3S,6S)-3-(((5-(trifluoromethyl)pyridin-2-yl)oxy)methyl)-2-azabicyclo[4.1.0]heptan-2-yl)methanone] | 12.6 | 1.58 |
| O=C(c1cc(Cl)ccc1-c1ncccn1)N1[C@H](CNc2cc(C(F)(F)F)ccn2)CC[C@@H]2C[C@@H]21 [Compound 4d, (5-chloro-2-(pyrimidin-2-yl)phenyl)((1S,3S,6R)-3-(((4-(trifluoromethyl)pyridin-2-yl)amino)methyl)-2-azabicyclo[4.1.0]heptan-2-yl)methanone] | 50.1 | 7.94 |
| O=C(c1cc(Cl)ccc1-c1ncccn1)N1[C@H](COc2ccc(F)cn2)CC[C@H]2C[C@H]21 [Compound 3c, (5-chloro-2-(pyrimidin-2-yl)phenyl)((1R,3S,6S)-3-(((5-fluoropyridin-2-yl)oxy)methyl)-2-azabicyclo[4.1.0]heptan-2-yl)methanone] | 63.1 | 12.6 |
| Cc1nc(C(=O)N2[C@H](CNc3ccc(C(F)(F)F)cn3)CC[C@H]3C[C@H]32)c(-c2ccccc2)s1 [Compound 2a, (2-methyl-5-phenylthiazol-4-yl)((1R,3S,6S)-3-(((5-(trifluoromethyl)pyridin-2-yl)amino)methyl)-2-azabicyclo[4.1.0]heptan-2-yl)methanone] | 2.51 | 2.51 |
| O=C(c1cc(Cl)ccc1-c1ncccn1)N1[C@H](CNc2nccc(C(F)(F)F)n2)CC[C@H]2C[C@H]21 [Compound 1g, (5-chloro-2-(pyrimidin-2-yl)phenyl)((1R,3S,6S)-3-(((4-(trifluoromethyl)pyrimidin-2-yl)amino)methyl)-2-azabicyclo[4.1.0]heptan-2-yl)methanone] | 5.01 | 1 |
| Cc1nc(C(=O)N2[C@H](CNc3nccc(C(F)(F)F)n3)CC[C@H]3C[C@H]32)c(-c2ccccc2)s1 [Compound 2c, (2-methyl-5-phenylthiazol-4-yl)((1R,3S,6S)-3-(((4-(trifluoromethyl)pyrimidin-2-yl)amino)methyl)-2-azabicyclo[4.1.0]heptan-2-yl)methanone] | 6.31 | 1.26 |
| Cc1nc(C(=O)N2[C@H](CNc3ccc(C(F)(F)F)cn3)CC[C@@H]3C[C@@H]32)c(-c2ccccc2)s1 [Compound 5a, (2-methyl-5-phenylthiazol-4-yl)((1S,3S,6R)-3-(((5-(trifluoromethyl)pyridin-2-yl)amino)methyl)-2-azabicyclo[4.1.0]heptan-2-yl)methanone] | 50.1 | 2.51 |
